Assay [1] addresses Small conductance calcium-activated potassium channel protein 2 (Rattus norvegicus, UniProt P70604). The experiment in a line: Inhibition of recombinant rat SK2 expressed in HEK293 cells assessed as […] at membrane potential -120 mV for 50 ms followed by 400 ms voltage ramp to 60 mV by whole cell patch clamp method. The class given is cell-based. For orientation: A change in cytosolic calcium serves as a functional read-out for many receptors and channels.

In assay [2] the target is T1, Small conductance calcium-activated potassium channel protein 3 (Homo sapiens, UniProt Q9UGI6). The experiment in a line: Inhibition of recombinant human SK3 expressed in HEK293T cells assessed as […] at membrane potential -120 mV for 50 ms followed by 400 ms voltage ramp to 60 mV by whole cell patch clamp method. The class given is cell-based, HEK-293T.

Assay [3] has as its target Small conductance calcium-activated potassium channel protein 2 (Rattus norvegicus) (UniProt P70604). The experiment in a line: Inhibition of recombinant rat SK2 expressed in HEK293 cells at 10 nM and holding potential at 0 mV and ramp voltage from -100 to 100 mV by whole cell patch clamp method relative to control. The class given is cell-based. On the technique in general: Patch clamp records ionic current or voltage across a cell membrane.

Assay [4] addresses T1, Small conductance calcium-activated potassium channel protein 3. The experiment in a line: Inhibition of recombinant human SK3 expressed in HEK293T cells at 10 nM and holding potential at 0 mV and ramp voltage from -100 to 100 mV by whole cell patch clamp method relative to control. It is filed as cell-based. The conditions noted are these: HEK-293T.

Positions of bridges follow the written chain, without caps; N, C: chain ends. Residues, ends and D or L forms follow the SMILES beside them.

Chain of Small conductance calcium-activated potassium channel protein 2 (Rattus norvegicus) (P70604 whole entry): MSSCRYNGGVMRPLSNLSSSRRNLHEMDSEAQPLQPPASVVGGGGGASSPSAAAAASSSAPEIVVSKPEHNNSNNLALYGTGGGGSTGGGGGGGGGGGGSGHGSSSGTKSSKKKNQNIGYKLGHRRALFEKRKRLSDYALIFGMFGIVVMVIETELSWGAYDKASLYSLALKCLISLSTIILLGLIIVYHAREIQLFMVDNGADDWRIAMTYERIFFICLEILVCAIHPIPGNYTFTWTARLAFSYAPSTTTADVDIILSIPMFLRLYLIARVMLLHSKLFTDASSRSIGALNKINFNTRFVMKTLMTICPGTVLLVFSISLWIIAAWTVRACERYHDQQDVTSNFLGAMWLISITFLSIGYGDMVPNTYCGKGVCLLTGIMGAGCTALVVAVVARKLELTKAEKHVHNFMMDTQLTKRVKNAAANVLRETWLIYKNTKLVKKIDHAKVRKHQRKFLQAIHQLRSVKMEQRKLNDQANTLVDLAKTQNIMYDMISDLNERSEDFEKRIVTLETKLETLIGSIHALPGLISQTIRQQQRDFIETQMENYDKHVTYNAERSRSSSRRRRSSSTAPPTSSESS
T1 sequence (Q9UGI6 whole entry): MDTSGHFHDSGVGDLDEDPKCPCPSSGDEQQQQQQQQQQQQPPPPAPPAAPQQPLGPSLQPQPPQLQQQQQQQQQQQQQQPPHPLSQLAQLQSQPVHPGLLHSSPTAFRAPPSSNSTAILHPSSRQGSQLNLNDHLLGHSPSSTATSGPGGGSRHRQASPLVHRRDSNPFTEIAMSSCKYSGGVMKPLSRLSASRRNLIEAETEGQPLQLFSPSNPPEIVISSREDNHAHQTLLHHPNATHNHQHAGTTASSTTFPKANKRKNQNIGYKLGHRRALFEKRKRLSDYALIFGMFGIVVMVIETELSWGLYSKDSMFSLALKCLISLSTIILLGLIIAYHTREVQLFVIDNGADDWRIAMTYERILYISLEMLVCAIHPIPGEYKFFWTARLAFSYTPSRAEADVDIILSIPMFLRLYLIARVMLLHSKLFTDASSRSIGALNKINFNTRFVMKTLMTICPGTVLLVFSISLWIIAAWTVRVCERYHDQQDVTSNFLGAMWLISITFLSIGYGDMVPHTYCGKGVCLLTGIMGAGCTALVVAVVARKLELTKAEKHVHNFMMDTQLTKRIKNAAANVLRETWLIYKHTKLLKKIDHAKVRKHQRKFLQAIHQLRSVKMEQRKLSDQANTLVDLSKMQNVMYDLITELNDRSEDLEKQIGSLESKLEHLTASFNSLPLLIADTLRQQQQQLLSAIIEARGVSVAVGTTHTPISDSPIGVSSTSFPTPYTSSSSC
Chain of Small conductance calcium-activated potassium channel protein 2 (P70604 whole entry): as the sequence (P70604 whole entry) above

What is called EC50 is the concentration at which the effect is half-maximal. On to `CC[C@H](C)[C@@H]1NC(=O)[C@@H]2CSSC[C@H](NC(=O)[C@H](Cc3ccccc3)NC(=O)[C@H](C)N)C(=O)N[C@@H](CC(N)=O)C(=O)N[C@@H](CC(C)C)C(=O)N[C@@H](CCCNC(=N)N)C(=O)N[C@@H](CCSC)C(=O)N[C@H]3CSSC[C@H](NC(=O)[C@H](CCCCN)NC(=O)[C@H](CC(=O)O)NC(=O)CNC1=O)C(=O)N[C@@H](CCC(=O)O)C(=O)N[C@H](C(=O)N[C@H](C(=O)N[C@@H](CCCCN)C(=O)N[C@@H](Cc1c[nH]cn1)C(=O)O)C(C)C)CSSC[C@H](NC(=O)[C@H](CO)NC(=O)[C@H](CC(C)C)NC(=O)[C@H](CCC(N)=O)NC3=O)C(=O)N[C@@H](CCCNC(=N)N)C(=O)N[C@@H](CO)C(=O)N[C@@H](CC(C)C)C(=O)NCC(=O)N[C@@H](CC(C)C)C(=O)N[C@@H](CC(C)C)C(=O)NCC(=O)N[C@@H](CCCCN)C(=O)N2` (H-AFCNLRMCQLSCRSLGLLGKCIGDKCECVKH-OH; disulfide 3-21, 8-26, 12-28), for which the 50% effective concentration (EC50) in assay [1] was 0.29 nM; in assay [2], 1.1 nM.
For `CC[C@H](C)[C@@H]1NC(=O)[C@@H]2CSSC[C@H](NC(=O)[C@H](Cc3ccccc3)NC(=O)[C@H](C)N)C(=O)N[C@@H](CC(N)=O)C(=O)N[C@@H](CC(C)C)C(=O)N[C@@H](CCCNC(=N)N)C(=O)N[C@@H](CCCNC(=N)N)C(=O)N[C@H]3CSSC[C@H](NC(=O)[C@H](CCC(=O)O)NC(=O)[C@H](CCC(=O)O)NC(=O)CNC1=O)C(=O)N[C@@H](CCCCN)C(=O)N[C@H](C(=O)N[C@H](C(=O)N1CCC[C@H]1C(=O)N[C@@H](Cc1ccc(O)cc1)C(N)=O)C(C)C)CSSC[C@H](NC(=O)[C@H](CO)NC(=O)[C@H](CC(C)C)NC(=O)[C@H](CCC(=O)O)NC3=O)C(=O)N[C@@H](CCCNC(=N)N)C(=O)N[C@@H](CO)C(=O)N[C@@H](CC(C)C)C(=O)NCC(=O)N[C@@H](CC(C)C)C(=O)N[C@@H](CC(C)C)C(=O)NCC(=O)N[C@@H](CCCCN)C(=O)N2` (H-AFCNLRRCELSCRSLGLLGKCIGEECKCVPY-NH2; disulfide 3-21, 8-26, 12-28), the EC50 in assay [1] amounted to 0.024 nM; in assay [2] it was 1.7 nM.
The inhibition is the percentage by which the read-out fell short of the control. Turning to `CC[C@H](C)[C@@H]1NC(=O)[C@@H]2CSSC[C@H](NC(=O)[C@H](Cc3ccccc3)NC(=O)[C@H](C)N)C(=O)N[C@@H](CC(N)=O)C(=O)N[C@@H](CC(C)C)C(=O)N[C@@H](CCCNC(=N)N)C(=O)N[C@@H](CCCNC(=N)N)C(=O)N[C@H]3CSSC[C@H](NC(=O)[C@H](CCC(=O)O)NC(=O)[C@H](CCC(=O)O)NC(=O)CNC1=O)C(=O)N[C@@H](CCCCN)C(=O)N[C@H](C(=O)N[C@H](C(=O)N1CCC[C@H]1C(=O)N[C@@H](Cc1ccc(O)cc1)C(=O)N[C@@H](CC(N)=O)C(=O)O)C(C)C)CSSC[C@H](NC(=O)[C@H](CO)NC(=O)[C@H](CC(C)C)NC(=O)[C@H](CCC(=O)O)NC3=O)C(=O)N[C@@H](CCCNC(=N)N)C(=O)N[C@@H](CO)C(=O)N[C@@H](CC(C)C)C(=O)NCC(=O)N[C@@H](CC(C)C)C(=O)N[C@@H](CC(C)C)C(=O)NCC(=O)N[C@@H](CCCCN)C(=O)N2` (H-AFCNLRRCELSCRSLGLLGKCIGEECKCVPYN-OH; disulfide 3-21, 8-26, 12-28), the inhibition is 40% in assay [3] and under 39% in assay [4].
The corresponding values for `CC[C@H](C)[C@@H]1NC(=O)[C@@H]2CSSC[C@H](NC(=O)[C@H](Cc3ccccc3)NC(=O)[C@H](C)N)C(=O)N[C@@H](CC(N)=O)C(=O)N[C@@H](CC(C)C)C(=O)N[C@@H](CCCNC(=N)N)C(=O)N[C@@H](CCCNC(=N)N)C(=O)N[C@H]3CSSC[C@H](NC(=O)[C@H](CCC(=O)O)NC(=O)[C@H](CCC(=O)O)NC(=O)CNC1=O)C(=O)N[C@@H](CCCCN)C(=O)N[C@H](C(=O)N[C@H](C(=O)N[C@@H](Cc1ccc(O)cc1)C(=O)O)C(C)C)CSSC[C@H](NC(=O)[C@H](CO)NC(=O)[C@H](CC(C)C)NC(=O)[C@H](CCC(=O)O)NC3=O)C(=O)N[C@@H](CCCNC(=N)N)C(=O)N[C@@H](CO)C(=O)N[C@@H](CC(C)C)C(=O)NCC(=O)N[C@@H](CC(C)C)C(=O)N[C@@H](CC(C)C)C(=O)NCC(=O)N[C@@H](CCCCN)C(=O)N2` (H-AFCNLRRCELSCRSLGLLGKCIGEECKCVY-OH; disulfide 3-21, 8-26, 12-28) are 40% and under 39%.
With `CC[C@H](C)[C@@H]1NC(=O)[C@@H]2CSSC[C@H](NC(=O)[C@H](Cc3ccccc3)NC(=O)[C@H](C)N)C(=O)N[C@@H](CC(N)=O)C(=O)N[C@@H](CC(C)C)C(=O)N[C@@H](CCCNC(=N)N)C(=O)N[C@@H](CCCNC(=N)N)C(=O)N[C@H]3CSSC[C@H](NC(=O)[C@H](CCC(=O)O)NC(=O)[C@H](CCC(=O)O)NC(=O)CNC1=O)C(=O)N[C@@H](CCCCN)C(=O)N[C@H](C(=O)N[C@H](C(=O)N[C@@H](Cc1ccc(O)cc1)C(=O)N[C@@H](CC(N)=O)C(=O)O)C(C)C)CSSC[C@H](NC(=O)[C@H](CO)NC(=O)[C@H](CC(C)C)NC(=O)[C@H](CCC(=O)O)NC3=O)C(=O)N[C@@H](CCCNC(=N)N)C(=O)N[C@@H](CO)C(=O)N[C@@H](CC(C)C)C(=O)NCC(=O)N[C@@H](CC(C)C)C(=O)N[C@@H](CC(C)C)C(=O)NCC(=O)N[C@@H](CCCCN)C(=O)N2` (H-AFCNLRRCELSCRSLGLLGKCIGEECKCVYN-OH; disulfide 3-21, 8-26, 12-28), the inhibition in assay [3] is 40%; in assay [4], under 39%.
In the case of `CC[C@H](C)[C@@H]1NC(=O)[C@@H]2CSSC[C@H](NC(=O)[C@H](Cc3ccccc3)NC(=O)[C@H](C)N)C(=O)N[C@@H](CC(N)=O)C(=O)N[C@@H](CC(C)C)C(=O)N[C@@H](CCCNC(=N)N)C(=O)N[C@@H](CCCNC(=N)N)C(=O)N[C@H]3CSSC[C@H](NC(=O)[C@H](CCCCN)NC(=O)[C@H](CCC(=O)O)NC(=O)CNC1=O)C(=O)N[C@@H](CCCCN)C(=O)N[C@H](C(=O)N[C@H](C(=O)N1CCC[C@H]1C(=O)N[C@@H](Cc1ccc(O)cc1)C(=O)O)C(C)C)CSSC[C@H](NC(=O)[C@H](CO)NC(=O)[C@H](CC(C)C)NC(=O)[C@H](CCC(=O)O)NC3=O)C(=O)N[C@@H](CCCNC(=N)N)C(=O)N[C@@H](CO)C(=O)N[C@@H](CC(C)C)C(=O)NCC(=O)N[C@@H](CC(C)C)C(=O)N[C@@H](CC(C)C)C(=O)NCC(=O)N[C@@H](CCCCN)C(=O)N2` (H-AFCNLRRCELSCRSLGLLGKCIGEKCKCVPY-OH; disulfide 3-21, 8-26, 12-28), the inhibition in assay [3] was under 39%; in assay [4], 40%.
For the compound `CC[C@H](C)[C@@H]1NC(=O)[C@@H]2CSSC[C@H](NC(=O)[C@@H](NC(=O)[C@H](C)N)C(C)C)C(=O)N[C@@H](CC(N)=O)C(=O)N[C@@H](CC(C)C)C(=O)N[C@@H](CCCCN)C(=O)N[C@@H](CCCNC(=N)N)C(=O)N[C@H]3CSSC[C@H](NC(=O)[C@H](CCCCN)NC(=O)[C@H](CC(=O)O)NC(=O)CNC1=O)C(=O)N[C@@H](CCC(=O)O)C(=O)N[C@H](C(=O)N[C@H](C(=O)N[C@@H](CCCCN)C(=O)N[C@@H](Cc1c[nH]cn1)C(N)=O)C(C)C)CSSC[C@H](NC(=O)[C@H](CO)NC(=O)[C@H](CC(C)C)NC(=O)[C@H](CCC(N)=O)NC3=O)C(=O)N[C@@H](CCCNC(=N)N)C(=O)N[C@@H](CO)C(=O)N[C@@H](CC(C)C)C(=O)NCC(=O)N[C@@H](CC(C)C)C(=O)N[C@@H](CC(C)C)C(=O)NCC(=O)N[C@@H](CCCCN)C(=O)N2` (H-AVCNLKRCQLSCRSLGLLGKCIGDKCECVKH-NH2; disulfide 3-21, 8-26, 12-28), the EC50 in assay [2] was found to be 3.8 nM.

Values taken from ChEMBL document CHEMBL4725389, “Novel Blocker of Onco SK3 Channels Derived from Scorpion Toxin Tamapin and Active against Migration of Cancer Cells” (ACS Med Chem Lett, 2020).
